# Data: patent US5409933A, “Quinoline derivatives and processes for preparing the same” (priority 1993, dated 1995)
# Structures can show the parent of a compound that is named as a salt. Where two headings read alike, the source gives them in different places.
# Experiments:
# Experiment in all cases: In Vitro Anti-Bacterial Activity Test (MIC, agar dilution)
# Format in all cases: cell-based
# [1] = tested on: Pseudomonas aeruginosa 9027; conditions: Muller-Hinton agar, 37° C., 18 hours, read-out: MIC
# Summary of the method: (§1)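 Agar-incorporation MIC: Muller-Hinton medium, 10^7 C.F.U./ml inoculum, 18 h incubation at 37° C., growth checked by eye; ciprofloxacin reference.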
# [2] = tested on: Streptococcus pyogenes 308A; conditions: Muller-Hinton agar, 37° C., 18 hours, read-out: MIC
# Summary of the method: as §1
# Escherichia coli 078 = tested on: Escherichia coli 078
# Summary of the method: as §1
# [3] = tested on: Pseudomonas aeruginosa 1771M; conditions: Pseudomonas aeruginosa, 1771M, 18 h, Muller-Hinton agar, 37° C.
# Summary of the method: as §1
# [4] = tested on: Staphylococcus aureus 503
# Summary of the method: as §1
# Escherichia coli DC0 = conditions: Muller-Hinton agar, 37° C., 18 hours, read-out: MIC
# Summary of the method: as §1
# [5] = tested on: Staphylococcus aureus 285; conditions: Staphylococcus aureus, 285, 18 h
# Summary of the method: as §1
# Salmonella typhimurium = conditions: Salmonella enterica; Salmonella typhimurium; Muller-Hinton agar, 37° C., 18 hours; read-out: MIC
# Summary of the method: as §1
# [6] = tested on: Pseudomonas aeruginosa 1771
# Summary of the method: as §1
# Enterobacter cloacae P99 = conditions: Enterobacter cloacae, P99, 18 h
# Summary of the method: (§2)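 MIC values come from the lowest compound level in Muller-Hinton agar that stopped bacterial growth after 18 h at 37° C. Inocula contained 10^7 C.F.U./ml, and ciprofloxacin was run alongside as the reference antibacterial.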
# Klebsiella oxytoca 1082E = tested on: Klebsiella oxytoca 1082E
# Summary of the method: as §1
# [7] = tested on: Staphylococcus aureus SG511
# Summary of the method: as §1
# [8] = tested on: Pseudomonas aeruginosa 1592E; conditions: Muller-Hinton agar, 37° C., 18 hours, read-out: MIC
# Summary of the method: as §1
# [9] = tested on: Klebsiella aerogenes 1522E; conditions: Klebsiella aerogenes, 1522E, 18 h
# Summary of the method: as §1
# Escherichia coli DC2 = conditions: Escherichia coli, DC2, 18 h
# Summary of the method: as §1
# Escherichia coli TEM = conditions: Escherichia coli, 18 h, Muller-Hinton agar, 37° C.
# Summary of the method: as §2
# [10] = tested on: Enterobacter cloacae 1321E
# Summary of the method: as §1
# [11] = tested on: Streptococcus pyogenes 77A
# Summary of the method: as §1
# [12] = tested on: Streptococcus faecium MD8b; conditions: Enterococcus faecium, Muller-Hinton agar, 37° C., 18 hours, read-out: MIC
# Summary of the method: as §1
# Escherichia coli 1507E = conditions: Muller-Hinton agar, 37° C.
# Summary of the method: as §1
# [13] = Staphylococcus aureus 503, Muller-Hinton agar, 37° C., 18 hours, read-out: MIC
# [14] = Staphylococcus aureus 285, Muller-Hinton agar, 37° C., 18 hours, read-out: MIC
# [15] = Pseudomonas aeruginosa 1771, Muller-Hinton agar, 37° C., 18 hours, read-out: MIC
# [16] = Klebsiella oxytoca 1082E, Muller-Hinton agar, 37° C., 18 hours, read-out: MIC
# [17] = Staphylococcus aureus SG511, Muller-Hinton agar, 37° C., 18 hours, read-out: MIC
# [18] = Klebsiella aerogenes 1522E, Muller-Hinton agar, 37° C., 18 hours, read-out: MIC
# [19] = Streptococcus pyogenes 77A, Muller-Hinton agar, 37° C., 18 hours, read-out: MIC
# [20] = Enterobacter cloacae 1321E, Muller-Hinton agar, 37° C., 18 hours, read-out: MIC
# [21] = Escherichia coli 078, Muller-Hinton agar, 37° C., 18 hours, read-out: MIC
SMILES,MIC [1] [µg/mL],MIC [2] [µg/mL],"MIC (Escherichia coli 078; Escherichia coli, 078, 18 h) [µg/mL]",MIC [3] [µg/mL],"MIC [4, 13] [µg/mL]",MIC (Escherichia coli DC0) [µg/mL],"MIC [5, 14] [µg/mL]",MIC (Salmonella typhimurium) [µg/mL],"MIC [6, 15] [µg/mL]",MIC (Enterobacter cloacae P99) [µg/mL],MIC (Klebsiella oxytoca 1082E; [16]) [µg/mL],"MIC [7, 17] [µg/mL]",MIC [8] [µg/mL],"MIC [9, 18] [µg/mL]",MIC (Escherichia coli DC2) [µg/mL],MIC (Escherichia coli TEM) [µg/mL],"MIC [11, 19] [µg/mL]",MIC [12] [µg/mL],"MIC (Escherichia coli 1507E; Escherichia coli, 1507E, 18 h) [µg/mL]","MIC [10, 20] [µg/mL]",other results
"NC1CCN(c2cc3c(cc2F)c(=O)c(C(=O)C[N+](=O)[O-])cn3-c2ccc(F)cc2F)C1 (centres unmarked) [Example 9, 1-(2,4-difluorophenyl)-6-fluoro-7-(3-aminopyrrolidin-1-yl)-3-(2-nitroacetyl)-1,4-dihydro-4-oxoquinoline hydrochloride]",0.391,0.195,0.007,0.049,0.013,0.195,0.025,0.007,0.195,< 0.002,< 0.002,0.025,0.098,0.004,0.025,< 0.002,0.195,0.195,0.013,,"MIC ([10]; Enterobacter cloacae, 1321E, 18 h): 0.007 µg/mL"
"CCn1cc(C(=O)C[N+](=O)[O-])c(=O)c2cc(F)c(N3CCC(N)C3)c(F)c21 (centres unmarked) [Example 30, 1-ethyl-6,8-difluoro-7-(3-aminopyrrolidin-1-yl)-3-(2-nitroacetyl)-1,4-dihydro-4-oxoquinoline hydrochloride]",0.781,1.56,0.049,0.195,0.195,0.781,0.195,0.781,,0.049,,0.195,0.781,0.098,0.195,0.391,1.56,1.56,0.391,0.049,"MIC ([6]; Pseudomonas aeruginosa, 1771, 18 h): 0.391 µg/mL; MIC (Klebsiella oxytoca 1082E; Klebsiella oxytoca, 1082E, 18 h): 0.391 µg/mL"
"CCOC(=O)C(C(N)=O)C(=O)c1cn(C2CC2)c2c(Cl)c(N3CCC(N)C3)c(F)cc2c1=O (centres unmarked) [Example 52, 1-cyclopropyl-6-fluoro-8-chloro-7-(3-aminopyrrolidin-1-yl)-3-(2-amido-2-ethoxycarbonylacetyl)-1,4-dihydro-4-oxoquinoline hydrochloride]",0.781,0.195,0.007,0.098,0.025,0.049,0.025,0.013,0.391,0.004,< 0.002,0.025,0.391,0.013,0.025,< 0.002,0.391,0.391,,< 0.002,"MIC (Escherichia coli 1507E; 18 hours, read-out: MIC): 0.004 µg/mL"
"CCOC(=O)CC(=O)c1cn(C2CC2)c2c(Cl)c(N3CC[C@H](N)C3)c(F)cc2c1=O [Example 27, 1-cyclopropyl-6-fluoro-8-chloro-7-(3-3S-aminopyrrolidin-1-yl)-3-(2-ethoxycarbonylacetyl)-1,4-dihydro-4-oxoquinoline hydrochloride]",0.391,0.781,,0.098,0.049,0.098,0.049,< 0.002,0.195,0.004,< 0.002,0.098,0.195,0.013,0.013,< 0.002,0.391,0.391,0.013,< 0.002,MIC (Escherichia coli 078; [21]): 0.004 µg/mL
"CC(=O)C(C(C)=O)C(=O)c1cn(C2CC2)c2c(Cl)c(N3CCC(N)C3)c(F)cc2c1=O (centres unmarked) [Example 48, 1-cyclopropyl-6-fluoro-8-chloro-7-(3-aminopyrrolidin-1-yl)-3-(2,2-diacetoacetyl)-1,4-dihydro-4-oxoquinoline hydrochloride]",3.12,0.781,0.049,0.781,0.195,0.391,0.195,0.391,3.12,0.098,0.195,0.195,1.56,0.195,0.098,0.049,0.391,0.195,0.195,0.098,
"N[C@@H]1CCN(c2c(F)cc3c(=O)c(C(=O)C[N+](=O)[O-])cn(C4CC4)c3c2Cl)C1 [Example 12, 1-cyclopropyl-6-fluoro-8-chloro-7-(3-3R-aminopyrrolidin-1-yl)-3-(2-nitroacetyl)-1,4-dihydro-4-oxoquinoline hydrochloride]",0.391,0.391,,0.049,,0.098,,< 0.002,0.195,0.004,< 0.002,,0.391,,0.049,0.004,0.195,0.098,,< 0.002,"MIC (Escherichia coli 078; [21]): < 0.002 µg/mL; MIC ([4]; Staphylococcus aureus, 503, 18 h): 0.025 µg/mL; MIC [5]: 0.025 µg/mL; MIC ([7]; Staphylococcus aureus, SG511, 18 h): 0.025 µg/mL; MIC [9]: 0.025 µg/mL; MIC (Escherichia coli 1507E; 18 hours, read-out: MIC): 0.004 µg/mL"
"CS(=O)(=O)CC(=O)c1cn(C2CC2)c2c(Cl)c(N3CC4=C(CNC4)C3)c(F)cc2c1=O [Example 47, 1-cyclopropyl-6-fluoro-8-chloro-7-(3,7-diazabicyclo[3.3.0]oct-1,5-en-3-yl)-3-(2-methanesulfonylacetyl)-1,4-dihydro-4-oxoquinoline hydrochloride]",1.56,1.56,0.195,0.195,0.391,0.781,,0.098,0.781,0.049,0.098,0.391,0.781,0.049,0.391,0.195,,0.781,0.391,0.049,"MIC [5]: 0.195 µg/mL; MIC ([11]; Streptococcus pyogenes, 77A, 18 h): 0.781 µg/mL"
